Experimental data taken from patent US11570987B2, “Pesticidal compounds and methods of use” (New York University, priority 2019, dated 2023).
Blank lines part the entries; values can stand above or below the compound they belong to.

What was measured:
[1] = system: Drosophila melanogaster; experiment: Residual exposure knockdown bioassay on female fruit flies; format: in vivo; conditions: for KT50 against female Drosophila, comparison in words: dosage 1.06*10^−1 g/m^2, FIG. 8; for Drosophila knockdown times, comparison in words: Example 5, FIG. 5; for observed symptoms of exposed flies: fruit flies; for KT50 (median knockdown time): female Drosophila melanogaster, 2.0±0.1 mg, logistic regression of knockdown-time curves
From the text: Each symbol of FIGS. 2A-C corresponds to one female. Dashed lines indicate logistic regression of knockdown-time curves. The median knockdown time for each curve is denoted by its intersection with the horizontal KT50 marker. FIG. 2D illustrates comparison of the knockdown speeds (1/KT50) relative to DDT I. Error bars represent 95% confidence intervals (CI). Values with the same letter have overlapping 95% Cls and differences are considered insignificant. Inset: Photo of a typical female fly.
Female Drosophila melanogaster were exposed to 2.0±0.1 mg of DFDT, MFDT and DDT separately, in their crystalline and amorphous forms. The insects were monitored with a video camera until the entire population ceased to move. The videos then were analyzed to determine the knockdown times—a proxy for lethality—for each individual insect (Videos S1-S5). […] KT50 values, the times required for death of 50% of the insects, are the standard for assessing insecticide lethality (the lifetimes of individual insects differ because of the random nature of their contact with insecticide surfaces and varied susceptibility of a population). Here, the KT50 values were calculated by logistic regression of knockdown-time curves. […] Knockdown speeds, reciprocals of KT50 values, decreased in inverse order (FIG. 2d). The amorphous forms are always faster than their respective crystalline counterparts, with a-DFDT the fastest. […] Overall, the lethalities of the different solid forms of a given compound, as deduced from their knockdown speeds, were inversely correlated with their thermodynamic stability.
The relationships between functional groups that are directly attached to the central carbon atom and Drosophila knockdown times are shown in FIG. 6. […] Physical state of the compound at room temperature, and the median knockdown time (KT50) against female Drosophila are denoted below each compound. The dosage for the residual bioassay was 1.06*10^−1 g/m^2.
Residual action, which refers to the length of time a compound or composition may exist in a particular environment and remain effective, is a good proxy for the insecticidal activity of a compound. Each crystalline form was ground to a particle size similar to that of the liquid particles prepared by fine mist spraying. Lethality measurements were performed in duplicate for each solid-state form, each accompanied by two controls (no insecticide). Each microcrystalline form was added to a 10.0 cm diameter polystyrene petri dish (2.0 mg per dish), which was subsequently shaken to disperse the microcrystals throughout the petri dish. Amorphous forms were prepared by fine mist spraying a stock solution containing 70.0 mg of the respective insecticide in 10.0 mL hexane onto the top and bottom of 10.0 cm diameter polystyrene petri dishes (two sprays=0.280 mL) and allowing the hexane to evaporate at room temperature, resulting in 2.0 mg of liquid insecticide in each petri dish. 25 female adults Drosophila were sedated with carbon dioxide and flies were transferred to each petri dish. The top of the dish was then placed over the bottom and the motion of the mosquitos or fruit flies was recorded with a video camera (Sony HDR-CX455). The knockdown time was measured for each individual, with knockdown associated with an insect laying on the bottom surface of the petri dish in a supine position without moving from its original position after 10 seconds.

[2] = Acute oral toxicity, Fixed Dose Procedure (OECD Guideline 420); format: in vivo, rats; conditions: in vivo; rat, acute oral
Method: (§1) Fixed Dose Procedure (OECD Guideline 420):
(§2) (RS)-MFTE and (RS)-PFTE were test under OECD, Test No. 420: Acute Oral Toxicity—Fixed Dose Procedure, OECD Guidelines for the Testing of Chemicals, Section 4, OECD Publishing, Paris (2002), which is hereby incorporated by reference in its entirety.
(§3) Groups of five young adult animals (rats) of one sex in a stepwise procedure using the fixed doses of 5, 50, 300 and 2000 mg/kg in the main study as shown in FIG. 12B. Most tests are likely to be completed with either one or two sighting study steps and one main study step, thus using between 5 and 7 animals. Up to 5 animals are used in a limit test.

[3] = system: rats; experiment: as above; format: in vivo; conditions: for clinical symptoms: 5 animals; for clinical outcome of the animal in the pilot experiment: single animal
Method: as §1, §2, §3

[4] = system: Drosophila melanogaster; experiment: Residual exposure knockdown bioassay on female fruit flies; format: in vivo; conditions: for speed of action (lethality) of enantiomers and racemate, in words: fruit flies, different dosages (FIG. 9, FIG. 10)
[5] = Stability of amorphous forms at room temperature; format: physicochemical
From the text: DFDT and MFDT were synthesized from trichloroacetate and para-fluorobenzaldehyde to give 1-(4-fluorophenyl)-2,2,2-trichloroethanol. Subsequent reaction with fluorobenzene or chlorobenzene afforded DFDT and MFDT, respectively. Two polymorphic crystalline forms of DFDT (DFDT-I, -II) and three polymorphic forms of racemic MFDT ((RS)-MFDT-I, -II, -III) were discovered. DFDT-I single crystals could be obtained from a variety of solvents and DFDT-II single crystals from diethyl ether. (RS)-MFDT-I could be crystallized from a variety of solvents. The (R)- and (S)-MFDT enantiomers were resolved by chromatography on a chiral stationary phase, and single crystals were grown from a variety of solvents. Curiously, single crystals of (RS)-MFDT-II and -III were obtained by crystallization from the melt at >30° C. and 25° C., respectively, using seed crystals of either the R or S isomers. These crystalline forms, six total, were characterized by single crystal X-ray diffraction (FIG. 1). […] The Tm of the enantiomorphs was 47° C. Amorphous DFDT (a-DFDT), prepared by supercooling melts or fine mist spraying of solutions, afforded broad X-ray scattering halos (FIG. 1H) and was stable for 25 days at room temperature. Amorphous resolved and racemic MFDT (a-(R)- and a-(S)-MFDT, and a-(RS)-MFDT, respectively; FIG. 1H) were stable for 10 days at room temperature. These observations contrast with a-DDT, which transformed to crystalline DDT Form I within 5 hours at room temperature.

[6] = system: Anopheles quadrimaculatus; experiment: Knockdown bioassay on female Anopheles mosquitoes in coated petri dishes; format: in vivo; conditions: for knockdown speed, times faster than a-DDT: Anopheles and Aedes mosquitoes (FIG. 3F); for KT50: female Anopheles, 1.0±0.1 mg amorphous form in petri dish
From the text: (§4) Each symbol corresponds to one female. Dashed lines indicate logistic regression of knockdown-time curves. The median knockdown time for each curve is denoted by its intersection with the horizontal KT50 marker. FIG. 3F illustrates the relative knockdown speeds of amorphs. Error bars represent 95% confidence intervals (CI). Values with the same letter have overlapping 95% Cls and differences are considered insignificant. Insets: Photos of typical Anopheles and Aedes mosquito females.
(§5) Female Anopheles and Aedes mosquitoes exposed to 1.0±0.1 mg of various crystalline forms followed the same knockdown trend as Drosophila, see Example 2, with KT50 values decreasing in the order DDT-I>(RS)-MFDT-I>DFDT-I>DFDT-II (FIGS. 3A and 3B). […] Female mosquitoes were introduced into petri dishes coated with 1.0±0.1 mg of the amorphous forms, and their motions recorded (Videos S8-S10). KT50 values for a-DFDT and a-(RS)-MFDT against Anopheles were 29 and 39 minutes, and against Aedes were 30 and 40 minutes, respectively (FIGS. 3C and 3D). Corresponding KT50 values for a-DDT were much larger (120 and 112 minutes). Accordingly, the knockdown speeds for a-DFDT and a-(RS)-MFDT are 4 and 3 times faster than a-DDT, respectively (FIG. 3F).

[7] = system: Aedes aegypti; experiment: Knockdown bioassay on female Aedes mosquitoes in coated petri dishes; format: in vivo; conditions: 1.0±0.1 mg amorphous form in petri dish
From the text: as §4, §5

SMILES: OC(c1ccc(F)cc1)C(Cl)(Cl)Cl (racemic) [(RS)-MFTE, 1-(4-fluorophenyl)-2,2,2-trichloro-ethanol]
KT50 against female Drosophila, comparison in words [1]: comparable to that of crystalline deltamethrin Form I
LD50 [2]: 300 to 2000 mg/kg
necropsy findings ([3]; 300 mg/kg b.w.): no relevant changes were noted except for the spleen
clinical symptoms ([3]; 300 mg/kg b.w.): only mild symptoms (underactivity)
necropsy findings ([3]; 2000 mg/kg b.w.): changes were seen mainly in the gastrointestinal tract
clinical outcome of the animal in the pilot experiment ([3]; 2000 mg/kg b.w.): had to be euthanized 1 day after application
speed of action (lethality) of enantiomers and racemate, in words [4]: lies in between of (R) and (S)-MFTE

SMILES: OC(c1c(F)c(F)c(F)c(F)c1F)C(Cl)(Cl)Cl (racemic) [(RS)-PFTE, 1-perfluorophenyl-2,2,2-trichloro-ethanol]
Drosophila knockdown times, comparison in words [1]: smaller than amorphous DFDT
KT50 against female Drosophila, comparison in words [1]: comparable to that of crystalline deltamethrin Form I
LD50 [2]: 300 to 2000 mg/kg
necropsy findings ([3]; 300 mg/kg b.w.): no abnormal findings during necropsy
clinical symptoms ([3]; 300 mg/kg b.w.): no clinical symptoms except for soft feces
necropsy findings ([3]; 2000 mg/kg b.w.): changes were seen mainly in the gastrointestinal tract
clinical outcome of the animal in the pilot experiment ([3]; 2000 mg/kg b.w.): had to be euthanized on day 1 approx. 3 h after application

time the amorphous form was stable ([5]; room temperature): 10 days
SMILES: Fc1ccc(C(c2ccc(Cl)cc2)C(Cl)(Cl)Cl)cc1 (racemic) [a-(RS)-MFDT, 1,1,1-trichloro-2,2-(4-chlorophenyl)-(4-fluorophenyl)-ethane]
knockdown speed, times faster than a-DDT [6]: 3 times
KT50 [6]: 39 min
KT50 [7]: 40 min

SMILES: O[C@H](c1ccc(F)cc1)C(Cl)(Cl)Cl [(R)-MFTE, (R)-1-(4-fluorophenyl)-2,2,2-trichloro-ethanol]
speed of action against deltamethrin Form I, in words ([4]; dosage above 5.30*10^−3/m^2): even faster in action than deltamethrin Form I
speed of action (lethality) of enantiomers and racemate, in words [4]: always faster in action than (S)-MFTE

SMILES: O[C@H](c1c(F)c(F)c(F)c(F)c1F)C(Cl)(Cl)Cl [(R)-PFTE, (R)-1-perfluorophenyl-2,2,2-trichloro-ethanol]
speed of action against (RS)-PFTE, in words ([4]; dosage below 1.06*10^−1/m^2): faster in action than (RS)-PFTE
speed of action (lethality) of enantiomers and racemate, in words [4]: always faster in action than (S)-PFTE
speed of action against deltamethrin Form I, in words ([4]; high dosage 1.06*10^−1/m^2 and above): slower in action than deltamethrin Form I
speed of action against deltamethrin, in words ([4]; low dosage 5.30*10^−3/m^2): faster in action than deltamethrin

SMILES: Clc1ccc(C(c2ccc(Cl)cc2)C(Cl)(Cl)Cl)cc1 [DDT, 1,1,1-trichloro-2,2-bis(4-chlorophenyl)ethane, reference compound]
KT50 against female Drosophila, comparison in words [1]: much larger
observed symptoms of exposed flies [1]: induced hyperactivity followed by paralysis, and then death

SMILES: Clc1ccc(C(c2ccc(Cl)cc2)C(Cl)(Cl)Cl)cc1 [DDT-I, 1,1,1-trichloro-2,2-bis(4-chlorophenyl)ethane, reference compound]
KT50 (median knockdown time) [1]: 261 min

SMILES: Fc1ccc(C(c2ccc(F)cc2)C(Cl)(Cl)Cl)cc1 [DFDT, reference compound]
KT50 against female Drosophila, comparison in words [1]: much larger
observed symptoms of exposed flies [1]: induced hyperactivity followed by paralysis, and then death

SMILES: Fc1ccc(C(c2ccc(Cl)cc2)C(Cl)(Cl)Cl)cc1 (stereo not drawn) [MFDT, 1,1,1-trichloro-2,2-(4-chlorophenyl)-(4-fluorophenyl)-ethane]
observed symptoms of exposed flies [1]: induced hyperactivity followed by paralysis, and then death

SMILES: CC(O)(c1c(F)c(F)c(F)c(F)c1F)C(Cl)(Cl)Cl (stereo not drawn) [PFTP, 2-(perfluorophenyl)-1,1,1-trichloro-propan-2-ol]
KT50 against female Drosophila, comparison in words [1]: comparable to that of crystalline deltamethrin Form I

SMILES: OC(c1ccc(C(F)(F)F)cc1)C(Cl)(Cl)Cl (stereo not drawn) [TFMTE, 1-(4-(trifluoromethyl)phenyl)-2,2,2-trichloro-ethanol]
Drosophila knockdown times, comparison in words [1]: faster than DDT Form I, but not as fast as PFTE

time the amorphous form was stable ([5]; room temperature): 10 days
SMILES: Fc1ccc(C(c2ccc(Cl)cc2)C(Cl)(Cl)Cl)cc1 [a-(R)-MFDT, 1,1,1-trichloro-2,2-(4-chlorophenyl)-(4-fluorophenyl)-ethane]

SMILES: Clc1ccc(C(c2ccc(Cl)cc2)C(Cl)(Cl)Cl)cc1 [a-DDT, 1,1,1-trichloro-2,2-bis(4-chlorophenyl)ethane]
time to transformation to crystalline DDT Form I ([5]; room temperature): ≤ 5 h
KT50 [6]: 120 min
KT50 [7]: 112 min

SMILES: Fc1ccc(C(c2ccc(F)cc2)C(Cl)(Cl)Cl)cc1 [a-DFDT]
time the amorphous form is stable ([5]; addition of 10 wt % PEG 100 emulsifier): at least 120 days
time the amorphous form was stable ([5]; room temperature): 25 days
KT50 (median knockdown time) [1]: 54 min
knockdown speed, times faster than a-DDT [6]: 4 times
KT50 [6]: 29 min
KT50 [7]: 30 min
